Source: patent publication US10111428B2, “Nematocide containing lactonic ring and preparation method and application thereof” (priority 2015, dated 2018)
In brackets after ≈: the same amount, converted by molar mass. Read-outs that look alike come from different tables or passages of the source.

How the values were obtained:
Edaphon = Edaphon toxicity test (Test Guidelines on Environmental Safety Assessment for Chemical Pesticides)
Procedure: (§1) According to the earthworm and edaphon toxicity test procedures as prescribed in the Test Guidelines on Environmental Safety Assessment for Chemical Pesticides, earthworm and edaphon toxicity tests are conducted on compounds 1 to 60 from Table 1. The simulative usual dose of pesticide in the edaphon test is 40 ppm.

Nematode eggs = experiment: Plant pathogenic nematode inhibition test by dipping: nematode egg hatch inhibition (NY/T 1154.5-2006); format: in vivo
Procedure: A plant pathogenic nematode inhibition test is conducted by dipping with the compounds in Table 1; and by referring to NY/T 1154.5-2006 (Part 5: Dipping Test for Insecticide Ovicidal Activity), the nematode egg hatch inhibition activity of the compounds is tested, as shown in Table 2: […]

Nematode J2 = experiment: Plant pathogenic nematode inhibition test by dipping: second-stage juveniles; format: in vivo
Earthworm = Earthworm toxicity test (Test Guidelines on Environmental Safety Assessment for Chemical Pesticides); format: in vivo; conditions: cell adds 'low toxicity'
Procedure: as §1

[1] = 15 d, 100 times of usual dose (simulative usual dose 40 ppm), cell adds 'low toxicity'
[2] = Test object: nematode eggs, dipping
[3] = Test object: nematode J2 (second-stage juveniles), dipping

Compound | Edaphon Toxicity (15 d) (Inhibition ratio when added amount is 100 times of usual dose) (Edaphon; [1]) | LC50 (Nematode eggs; in vivo) | LC50 (Nematode J2; in vivo) | Earthworm Toxicity LC50 (14 d) (Earthworm) | LC50 (Nematode eggs; [2]) | LC50 (Nematode J2; [3]) | Edaphon Toxicity (15 d) (Inhibition ratio when added amount is 100 times of usual dose) (Edaphon)
Cc1ccccc1C1OC(=O)CC1C(=O)OCCC=C(F)F (centres unmarked) [Compound 2] | <50%, low toxicity | 9.81 mg/L (≈ 31.6 µM) | 10.14 mg/L (≈ 32.7 µM) | >10, low toxicity mg/L | – | – | –
Nc1ccc(C2OC(=O)CC2C(=O)OCCC(F)=C(F)F)cc1 (centres unmarked) [Compound 60] | <50%, low toxicity | 8.40 mg/L (≈ 25.5 µM) | 10.06 mg/L (≈ 30.6 µM) | >10, low toxicity mg/L | – | – | –
O=C1CC(C(=O)OCCC(F)=C(F)F)C(c2ccc(Br)cc2F)O1 (centres unmarked) [Compound 25] | <50%, low toxicity | – | – | >10, low toxicity mg/L | 13.91 mg/L (≈ 33.8 µM) | 15.74 mg/L (≈ 38.3 µM) | –
COc1ccc(C2OC(=O)CC2C(=O)OCCC(F)=C(F)F)c(C(F)(F)F)c1 (centres unmarked) [Compound 42] | <50%, low toxicity | 12.39 mg/L (≈ 30.1 µM) | 10.40 mg/L (≈ 25.2 µM) | >10, low toxicity mg/L | – | – | –
O=C1CC(C(=O)OCCC(F)=C(F)F)C(c2cc(F)cc(Cl)c2)O1 (centres unmarked) [Compound 24] | <50%, low toxicity | – | – | >10, low toxicity mg/L | 10.91 mg/L (≈ 29.8 µM) | 12.24 mg/L (≈ 33.4 µM) | –
O=C1CC(C(=O)OCCC(F)=C(F)F)C(c2ccc(Oc3ccc(Cl)cc3)cc2)O1 (centres unmarked) [Compound 54] | <50%, low toxicity | 12.40 mg/L (≈ 28.1 µM) | 14.16 mg/L (≈ 32.1 µM) | >10, low toxicity mg/L | – | – | –
O=C1CC(C(=O)OCCC(F)=C(F)F)C(c2cccc(F)c2)O1 (centres unmarked) [Compound 27] | – | – | – | >10, low toxicity mg/L | 7.85 mg/L (≈ 23.6 µM) | 8.91 mg/L (≈ 26.8 µM) | <50%, low toxicity
O=C1CC(C(=O)OCCC(F)=C(F)F)C(c2cc(F)cc(Br)c2)O1 (centres unmarked) [Compound 22] | <50%, low toxicity | 9.57 mg/L (≈ 23.3 µM) | 10.85 mg/L (≈ 26.4 µM) | >10, low toxicity mg/L | – | – | –
COc1cccc(C2OC(=O)CC2C(=O)OCCC(F)=C(F)F)c1 (centres unmarked) [Compound 37] | <50%, low toxicity | 12.84 mg/L (≈ 37.3 µM) | 13.67 mg/L (≈ 39.7 µM) | >10, low toxicity mg/L | – | – | –
O=C1CC(C(=O)OCCC(F)=C(F)F)C(c2ccccc2F)O1 (centres unmarked) [Compound 19] | <50%, low toxicity | 15.21 mg/L (≈ 45.8 µM) | 17.24 mg/L (≈ 51.9 µM) | >10, low toxicity mg/L | – | – | –
O=C1CC(C(=O)OCCC(F)=C(F)F)C(c2ccc(F)c(Cl)c2)O1 (centres unmarked) [Compound 23] | <50%, low toxicity | 10.23 mg/L (≈ 27.9 µM) | 11.24 mg/L (≈ 30.7 µM) | >10, low toxicity mg/L | – | – | –
O=C1CC(C(=O)OCCC(F)=C(F)F)C(c2ccccc2Cl)O1 (centres unmarked) [Compound 7] | <50%, low toxicity | – | – | >10, low toxicity mg/L | 12.81 mg/L (≈ 36.7 µM) | 13.25 mg/L (≈ 38 µM) | –
O=C1CC(C(=O)OCCC(F)=C(F)F)C(c2cc(Cl)cc(Cl)c2)O1 (centres unmarked) [Compound 13] | <50%, low toxicity | 15.46 mg/L (≈ 40.3 µM) | 16.25 mg/L (≈ 42.4 µM) | >10, low toxicity mg/L | – | – | –
CCCc1ccc(C2OC(=O)CC2C(=O)OCCC(F)=C(F)F)cc1 (centres unmarked) [Compound 5] | <50%, low toxicity | 8.02 mg/L (≈ 22.5 µM) | 9.777 mg/L (≈ 27.4 µM) | >10, low toxicity mg/L | – | – | –
Cc1ccc(C2OC(=O)CC2C(=O)OCCC=C(F)F)cc1 (centres unmarked) [Compound 3] | <50%, low toxicity | – | – | >10, low toxicity mg/L | 10.01 mg/L (≈ 32.3 µM) | 10.23 mg/L (≈ 33 µM) | –
Cc1ccc(Oc2ccccc2C2OC(=O)CC2C(=O)OCCC(F)=C(F)F)cc1 (centres unmarked) [Compound 53] | <50%, low toxicity | 8.98 mg/L (≈ 21.4 µM) | 12.35 mg/L (≈ 29.4 µM) | >10, low toxicity mg/L | – | – | –
O=C1CC(C(=O)OCCC(F)=C(F)F)C(c2c(Cl)cccc2Cl)O1 (centres unmarked) [Compound 11] | <50%, low toxicity | 13.30 mg/L (≈ 34.7 µM) | 14.95 mg/L (≈ 39 µM) | >10, low toxicity mg/L | – | – | –
